Assay results as given in article PMC8608967, “KDS2010, a Newly Developed Reversible MAO-B Inhibitor, as an Effective Therapeutic Candidate for Parkinson’s Disease” (Neurotherapeutics, 2021).

What was measured:
[1] = target: T1, human recombinant MAO-B (hMAO-B) (Homo sapiens, UniProt P27338); experiment: In vitro MAO-B enzyme assay (H2O2 release, absorbance 570 nm); format: biochemical
T1 construct: purchased Sigma Aldrich
T1 sequence (P27338 1-520): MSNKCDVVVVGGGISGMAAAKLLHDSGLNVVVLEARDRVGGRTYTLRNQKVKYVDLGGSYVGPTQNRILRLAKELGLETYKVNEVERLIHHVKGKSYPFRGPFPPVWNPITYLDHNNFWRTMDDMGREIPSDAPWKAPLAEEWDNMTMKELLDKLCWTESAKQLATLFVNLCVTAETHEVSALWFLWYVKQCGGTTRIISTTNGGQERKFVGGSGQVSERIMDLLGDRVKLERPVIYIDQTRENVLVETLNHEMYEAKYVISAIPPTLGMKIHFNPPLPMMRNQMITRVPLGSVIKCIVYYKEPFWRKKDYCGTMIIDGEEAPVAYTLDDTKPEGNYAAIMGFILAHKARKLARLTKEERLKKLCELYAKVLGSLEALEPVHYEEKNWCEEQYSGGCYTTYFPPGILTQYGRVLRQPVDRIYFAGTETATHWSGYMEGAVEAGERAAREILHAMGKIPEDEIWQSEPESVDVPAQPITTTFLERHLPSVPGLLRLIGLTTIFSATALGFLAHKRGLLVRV
Protocol: In brief, human recombinant MAO-A (hMAO-A) and MAO-B (hMAO-B) (Sigma Aldrich) were diluted in 50 mM phosphate buffer (~ 0.3 μg MAO-A protein/well or ~ 2.5 μg MAO-B protein/well), and the test compound was added in DMSO to a final concentration from 0.1 nM to 10 μM. The amount of hydrogen peroxide (H2O2) released after addition of enzyme substrate (p-tyramine for MAO-A or benzylamine for MAO-B) was quantified by measuring the absorbance increase at 570 nm on a microplate reader.

6-OHDA model rats = experiment: 6-OHDA rat model: stepping test, rotarod test, TH; conditions: 6-OHDA rats
Protocol: Group allocation and outcome assessment, but not the conduct of experiments and data analysis, were performed in a blinded manner. Throughout the study, confounders were not controlled. An acclimation period of 7 days was allowed for animals to stabilize in a new environment before model induction. […] Treatment drugs were dissolved in 100 μL of water and total dose (in mg) was calculated according to individual body weight (in kg). […] An experiment was halted if body weight decreased by 20% or more after MPTP or 6-hydroxydopamine (6-OHDA) treatment.
Finally, the 6-OHDA model was prepared as previously described [21]. Under general anesthesia, all rats received unilateral injections of 8 μg 6-OHDA (Sigma Aldrich) in 4 μL saline/0.1% ascorbic acid into the right medial forebrain bundle (AP − 2.2 mm and L + 1.5 mm relative to the bregma, V − 8.0 mm from the dura) [19], with the tooth bar set at + 4.5 mm.
Motor deficits of 6-OHDA and A53T mutant α-synuclein model rats were assessed as previously described with slight modifications [27]. Briefly, both hind limbs and one forelimb were firmly fixed in the two hands of the experimenter, and the rat was lowered over a treadmill moving at rate of 18 cm/s such that the body remained stationary while the free forelimb was allowed to spontaneously touch the moving treadmill track for 10 s. All experimental sessions were video recorded to count the number of adjusting steps taken in the backward direction. The number of adjusting steps was averaged across four trials in each session.
In addition, impaired motor coordination of 6-OHDA model rats was examined using the rotarod test as previously described with slight modifications [28]. […] Before the first rotarod test, all rats were pre-trained until riding time reached 60 s at 10 rpm (B.S Technolab, Seoul, Korea). Each session consisted of two trials, and riding time was averaged to obtain pre-6-OHDA, 0d, 7d, and 15d results.

[2] = system: MPTP-induced PD mouse model; experiment: MPTP mouse model: glial reactivity (GFAP, LCN2, Iba1 staining, western blot); format: in vivo; conditions: MPTP mice
Protocol: Throughout the study, confounders were not controlled.
After extensive washing, sections were incubated with corresponding fluorescent secondary antibodies for 2 h and then washed with three times in PBS. Finally, sections were mounted with fluorescent mounting medium (S3023, Dako) and dried. A series of fluorescent images were obtained using an A1 Nikon confocal microscope, and Z-stack images in 3-μm steps were processed for further analysis using ImageJ. Any alteration in brightness or contrast was applied equally to the entire image set.

[3] = target: T1, human recombinant MAO-B (hMAO-B); conditions: cited from earlier work
[4] = system: APP/PS1 transgenic mouse model of AD; parameters: method as in PMID 30906861; conditions: APP/PS1 mice; short-term (3 days) or long-term (30 days) treatment; cited from earlier work
[5] = system: MPTP-induced PD mouse model; experiment: MPTP mouse model: vertical grid test and coat hanger test; format: in vivo; conditions: MPTP mice
Protocol: Group allocation and outcome assessment, but not the conduct of experiments and data analysis, were performed in a blinded manner. Throughout the study, confounders were not controlled. An acclimation period of 7 days was allowed for animals to stabilize in a new environment before model induction. […] Treatment drugs were dissolved in 100 μL of water and total dose (in mg) was calculated according to individual body weight (in kg).
The MPTP model was established using the acute regimen of four intraperitoneal (i.p.) injections of MPTP-HCl (M0896, Sigma Aldrich, 2 mg/mL in saline, 20 mg/kg for one injection) at 2-h intervals.
Motor deficits of the MPTP-induced PD mouse model were assessed using the vertical grid test as described in the previous study [23]. Briefly, after 2 days of habituation to the testing apparatus, individual mice were gently placed 3 cm from the top, facing upward, and allowed to turn around and climb down. We also performed a coat hanger test as described [24–26]. Briefly, a mouse was gently hung on the middle of a coat hanger and allowed to ascend to the top. Performance was graded as follows: 0, falling off the hanger within 20 s; 1, moving to the side-bar of the hanger; 2, reaching the side-bar of the hanger; 3, climbing the side-bar of the hanger; 4, moving to the top of the hanger; 5, climbing and reaching the safe zone. The test was performed twice and each trial lasted a maximum of 3 min.

[6] = H2O2 scavenging capacity test (Amplex red/HRP); conditions: 10 min incubation with H2O2 at RT
Protocol: To determine the H2O2 scavenging capacity of the test compound, H2O2 concentration was measured using the modified Amplex red/horseradish peroxidase (HRP) detection method as described previously. Briefly, a H2O2 solution was incubated with the test compound for 10 min at room temperature (RT), and then the reaction solution containing 20 mM Amplex red and 200 U/mL HRP was added. The absorbance was measured at 570 nm using a microplate reader. The H2O2 scavenging capacities were compared to a blank negative control and to the known H2O2 scavenger epigallocatechin gallate (EGCG) as a positive control.

[7] = Toxicokinetics in 4-week repeated-dose study in cynomolgus monkeys (G218027); format: in vivo, cynomolgus monkey (Macaca fascicularis)
Protocol: In the repeated 4-week oral administration toxicity with 2-week recovery and toxicokinetic test (G218027), monkeys were assigned to 4 groups of 3 males and 3 females. Each group was orally administered KDS2010 at 0, 10, 20, or 40 mg/kg/day once a day for 4 weeks. Toxicity tests were conducted as described for study G217013. For toxicokinetic measurements, blood samples were collected pre-dose (time 0) and at 1, 2, 4, 6, 8, 10, and 24 h after oral administration on the first day (day 1) and the last day (week 4; day 28) of dosing.
A non-compartmental analysis module in Phoenix® WinNonlin® (version 6.4) (Certara Inc., CA, USA) was used to calculate pharmacokinetic (PK) parameters. Systemic exposure to KDS2010 was calculated by applying the linear trapezoidal rule to the area under the plasma concentration–time curve from time zero to the last quantifiable time point (AUClast), and the maximum observed peak plasma concentration (Cmax) and the time to reach Cmax (Tmax) were determined based on the observed data. The apparent terminal elimination half-life (t1/2) was calculated from the apparent terminal elimination rate constant using the formula t1/2 = 0.693/kel.

[8] = long-term (30-day) treatment, 10 mg/kg/day oral
[9] = post-treatment, administered 3 days after MPTP
[10] = pre-treatment, 10 mg/kg/day oral, 3 days starting 1 day before MPTP

In the case of `C[C@H](NCc1ccc(-c2ccc(C(F)(F)F)cc2)cc1)C(N)=O` [Compound 18j], the “higher MAO-B inhibitory effect of (S)-stereoisomer than (R)-isomer (19j)” value [1] is reported as “eightfold”, the “stepping test: stepping behavior deficit of the contralateral forepaw” value (6-OHDA model rats; 10 mg/kg/day for 15 days starting 17 days post-6-OHDA) is reported as “partially but significantly improved” and the “rotarod test: reduction in riding time (latency to fall)” value (6-OHDA model rats; 15 days' treatment starting 17 days after 6-OHDA) is reported as “partially reversed”. For the same compound, the “nigrostriatal TH loss” value (6-OHDA model rats; data not shown) was “not reversed”, the “GFAP staining intensity in SNpc” value [2] was “significantly reduced” and the “LCN2 expression in GFAP-positive astrocytes” value [2] was “reversed”. The “number of Iba1-positive microglia in SNpc” value [2] was “significantly reduced”, the “reactive transformation of microglia (larger cell bodies, shorter processes)” value [2] was “reversed” and the “volume of GFAP-positive astrocytes in SNpc (hypertrophy)” value [2] was “eliminated”. The “MPTP-induced changes of TH, GFAP and iNOS expression (western blotting)” value ([2]; SNpc) was “all of these changes were reversed”, the “mode of MAO-B inhibition” value ([3]; same binding cavity as selegiline) was “competitive inhibitor” and the “reversibility of MAO-B inhibition” value ([3]; with enantiomeric selectivity) was “reversible”. For the same compound, the memory impairment [4] was “effectively ameliorated”, the “vertical grid test: time to turn” value [5, 8] was “reduced” and the “vertical grid test: total time” value [5, 8] was “reduced”. The “coat hanger test: motor score” value [5, 9] was “increased”, the “vertical grid test: rate of missed steps” value [5, 9] was “significantly reduced” and the “vertical grid test: time to turn” value [5, 9] was “significantly reduced”. For the same compound, the “vertical grid test: total time” value [5, 9] was “significantly reduced”, the “vertical grid test: rate of missed steps” value [5, 10] was “significantly reduced” and the “vertical grid test: time to turn” value [5, 10] was “significantly reduced”. The “vertical grid test: total time” value [5, 10] was “significantly reduced”, the “coat hanger test: motor function score” value ([5]; pre-treatment, 10 mg/kg/day oral, vehicle-treated controls 1.8 ± 0.4, score 0-5) was 3.6 ± 0.5 and the H2O2 scavenging effect [6] was “did not show any H2O2 scavenging effect”. The Tmax ([7]; both sexes, cynomolgus monkey, plasma, po, cynomolgus monkeys, 10, 20 or 40 mg/kg/day p.o.) was 4.72 ± 1.93 h and the “dose-dependent increase of AUClast” value ([7]; cynomolgus monkeys, 10, 20, 40 mg/kg/day p.o.) was “slightly less than proportional”.
